Results on 1 molecule are retold here after US6585967B2, “Adhesive treatment for tinea cruris” (Closure Medical Corporation, priority 2001, dated 2003).

A short description of this series: Observation of haloprogin / 2-octyl cyanoacrylate monomer composition after preparation. The series is classed as physicochemical. The procedure:
A 2-octyl cyanoacrylate monomer composition is prepared by adding 30 mg of haloprogin, an anti-fungal agent, to 2 mL of 2-octyl cyanoacrylate monomer. The mixture is sealed in a glass vial and stirred. The characteristics of the composition are observed at about one minute after preparation and later at least twenty-four hours after preparation.

On to `Clc1cc(Cl)c(OCC#CI)cc1Cl` [haloprogin], for which, under “30 mg haloprogin in 2 mL 2-octyl cyanoacrylate monomer, at least twenty-four hours after preparation”, the “premature polymerization of the monomer (stability)” value is on record as “does not cause premature polymerization”. Where the note is “30 mg in 2 mL 2-octyl cyanoacrylate monomer, about one minute and at least twenty-four hours after preparation”, the “solubility of haloprogin in the monomer” value is “soluble in the monomer”.
